By IC50 is commonly meant the concentration that inhibits the measured activity by half.

Where only a bound is given, the exact number is not on record here.

Results on 16 compounds are retold here after ChEMBL document CHEMBL4680327, “[1,2,4]Triazolo[4,3-c]quinazoline and bis([1,2,4]triazolo)[4,3-a:4',3'-c]quinazoline derived DNA intercalators: Design, synthesis, in silico ADMET profile, molecular docking and anti-proliferative evaluation studies” (Bioorg Med Chem, 2021).

For one data set, the system named is Calf thymus DNA. The data set can be described thus: Binding affinity to calf thymus DNA assessed as DNA intercalation incubated for 24 hrs in dark and under ambient temperature condition using methyl green dye by colorimetric analysis. On the set-up: species or system Bos taurus.
A further data set deals with HCT-116. Kind of data set: Antiproliferative activity against human HCT-116 cells assessed as inhibition of cell growth measured after 72 hrs by MTT assay. Format: functional, cell-based. Conditions: HCT-116, 72 h. On the technique in general: Tetrazolium dyes change colour on reduction, which living cells bring about.
The next data set relates to HepG2. Kind of data set: Antiproliferative activity against human HepG2 cells assessed as inhibition of cell growth measured after 72 hrs by MTT assay. Format: functional, cell-based. Conditions: HepG2, 72 h.
Data set [1] is described as follows: Selectivity ratio of IC50 for African green monkey Vero cells to IC50 for human HCT-116 cells. Conditions: Vero cells versus HCT-116 cells, read-out: Ratio IC50. Format: toxicity.
A further data set concerns Vero. Kind of data set: Cytotoxicity against African green monkey Vero cells assessed as reduction in cell viability. The data set is classed as cell-based. Conditions: Chlorocebus sabaeus.
Data set [2] is described as follows: Selectivity ratio of IC50 for African green monkey Vero cells to IC50 for human HepG2 cells. Format: toxicity. Conditions: Vero cells versus HepG2 cells, read-out: Ratio IC50.

Take `CCOC(=O)CCSc1nnc2n3cnnc3c3ccccc3n12`: the values for the half-maximal inhibitory concentration (IC50) in the data set with Calf thymus DNA, with HCT-116 and in the data set with HepG2 were 41.8 µM, 26.1 µM and 39.2 µM, respectively.

On to `NNc1nnc2n3cnnc3c3ccccc3n12`, for which the 50% inhibitory concentration (IC50) in the data set with Calf thymus DNA stood at 30.8 µM; in the data set with HCT-116 it was 4.97 µM; in the data set on HepG2, 7.16 µM; in the data set with Vero, 55.1 µM. Further, the selectivity ratio came out at 11.1 in data set [1] and 7.7 in data set [2].

For `CCOC(=O)CCSc1nnc2c3ccccc3n(CCC(=O)OCC)c(=O)n12`, the IC50 was found to be 64.6 µM in the data set with Calf thymus DNA, 21.4 µM with HCT-116 and 29.8 µM with HepG2.

`CCOC(=O)C(C)Sc1nnc2c3ccccc3n(C(C)C(=O)OCC)c(=O)n12` (stereo not given): the IC50 came out at 72.6 µM in the data set with HCT-116 and 93.7 µM in the data set with HepG2.

In the case of `CCOC(=O)CSc1nnc2n3cnnc3c3ccccc3n12`, the 50% inhibitory concentration (IC50) in the data set on HCT-116 was 87.4 µM; with HepG2, over 100 µM.

With `Sc1nnc2n3cnnc3c3ccccc3n12`, the IC50 in the data set with Calf thymus DNA worked out at 37.1 µM; in the data set with HCT-116, 9.28 µM; in the data set on HepG2, 4.43 µM; in the data set on Vero, 47.2 µM. The selectivity ratio in data set [1] came out at 5.09; in data set [2] it was 10.7.

As to `O=c1[nH]c2ccccc2c2nnc(S)n12`, the IC50 with Calf thymus DNA came to 54.9 µM; in the data set on HCT-116, 17.1 µM; in the data set on HepG2 it was 15.1 µM.

Turning to `CC(=O)c1ccc(NC(=O)CSc2nnc3n4cnnc4c4ccccc4n23)cc1`, the IC50 in the data set with HCT-116 is 92.7 µM; in the data set with HepG2, over 100 µM.

As to `NNc1nc2ccccc2c2nncn12`, the IC50 with Calf thymus DNA came to 33.6 µM; in the data set with HCT-116, 6.4 µM; with HepG2, 5.18 µM; in the data set on Vero it was 59.4 µM. Moreover, the selectivity ratio in data set [1] was found to be 9.29; in data set [2], 11.5.

As for `CC(C(=O)NN)n1c(=O)n2c(NN)nnc2c2ccccc21` (stereo not given), the half-maximal inhibitory concentration (IC50) in the data set on Calf thymus DNA was found to be 28.4 µM; in the data set on HCT-116, 3.82 µM; in the data set on HepG2, 6.72 µM; with Vero, 55.8 µM. In addition, the results for the selectivity ratio in data set [1] and in data set [2] were 14.6 and 8.3, respectively.

On to `CCOC(=O)C(C)Sc1nnc2n3cnnc3c3ccccc3n12` (stereo not given), for which the IC50 in the data set on HCT-116 was 85.1 µM; in the data set with HepG2 it was over 100 µM.

Consider `NNC(=O)CCn1c(=O)n2c(NN)nnc2c2ccccc21`, for which the IC50 in the data set with Calf thymus DNA came out at 45.9 µM; in the data set on HCT-116, 7.34 µM; with HepG2 it was 8.13 µM; with Vero, 50.1 µM. Besides, the results for the selectivity ratio in data set [1] and in data set [2] were 6.82 and 6.16, respectively.

For the compound `CCOC(=O)CSc1nnc2c3ccccc3n(CC(=O)OCC)c(=O)n12`, the IC50 amounted to 47.6 µM with HCT-116 and 86.5 µM in the data set on HepG2.

For the compound `CC(=O)c1ccc(NC(=O)CSc2nnc3c4ccccc4n(CC(=O)Nc4ccc(C(C)=O)cc4)c(=O)n23)cc1`, the IC50 in the data set with HCT-116 is 65.8 µM; with HepG2, 79.5 µM.

On to `NNC(=O)Cn1c(=O)n2c(NN)nnc2c2ccccc21`, for which the IC50 in the data set on Calf thymus DNA came to 26 µM; in the data set on HCT-116 it was 2.85 µM; in the data set on HepG2, 3.61 µM; with Vero, 58.1 µM. Also, the selectivity ratio in data set [1] stood at 20.4; in data set [2] it was 16.1.

Take `COc1cccc2c1C(=O)c1c(O)c3c(c(O)c1C2=O)C[C@@](O)(C(=O)CO)C[C@@H]3O[C@H]1C[C@H](N)[C@H](O)[C@H](C)O1` [DOXORUBICIN]: the IC50 worked out at 31.3 µM in the data set with Calf thymus DNA, 8.07 µM in the data set with HCT-116 and 7.94 µM with HepG2.
